{"source": "patent US9045505B2", "about": "“Nitric oxide donors” (University of Otago, priority 2006, dated 2015)", "key": {"rat liver mitochondria": {"system": "rat liver mitochondria", "test": "Membrane potential-dependent uptake into isolated mitochondria (TPP-selective electrode)", "format": "biochemical", "conditions": "energized with 10 mM succinate, reversed by FCCP", "protocol": "FIG. 8 is a trace showing the uptake of MitoSNAP and MitoNAP by energized mitochondria measured using an ion-selective electrode. For (a) and (b) mitochondria (2 mg protein/ml) were incubated in KCl buffer supplemented with rotenone in a stirred 3 ml chamber thermostatted at 37° C. and shielded from ambient light. An electrode selective for the TPP cation was inserted and calibrated by five sequential 1 μM additions of MitoNAP (a) or MitoSNAP (b). Succinate (10 mM) was then added to energize the mitochondria, followed by the uncoupler FCCP (0.5 μM). Rapid uptake of MitoNAP by energized mitochondria was observed and this was reversed by abolishing the membrane potential with the uncoupler FCCP (a). Energised mitochondria also rapidly accumulated MitoSNAP (b). However, in contrast to MitoNAP, uncoupling apparently led to only partial release of the accumulated MitoSNAP (b). This apparent incomplete release of MitoSNAP on uncoupling is presumably because MitoSNAP is converted to MitoNAP within mitochondria and this generates a different response from the electrode.\nMitochondrial incubations were usually in KCl buffer (120 mM KCl, 10 mM HEPES, 1 mM EGTA, 100 μM N,N-bis(2-bis[carboxymethyl]aminoethyl) glycine (DTPA) and 10 μM neocuproine, pH 7.2) with 10 mM succinate and 4 μg/ml rotenone in the dark at 37° C., unless stated otherwise. An electrode selective for the TPP moiety of MitoSNAP and MitoNAP was made and used as described previously (Asin-Cayuela, J., Manas, A. R., James, A. M., Smith, R. A. & Murphy, M. P. Fine-tuning the hydrophobicity of a mitochondria-targeted antioxidant. FEBS Letts. 571, 9-16 (2004)). Respiration rates were measured in a Clark type O2 electrode (Rank Brothers, UK). To measure GSH and GSSG, mitochondria (1 mg protein/ml) were incubated with 0-10 μM MitoSNO1 or MitoNAP for 10 min, pelleted by centrifugation and the GSH and GSSG contents assessed by the recycling assay (Scarlett, J. L., Packer, M. A., Porteous, C. M. & Murphy, M. P. Alterations to glutathione and nicotinamide nucleotides during the mitochondrial permeability transition induced by peroxynitrite. Biochem. Pharmacol. 52, 1047-1055 (1996)). The measurement of exposed mitochondrial protein thiols is described below.\nRat liver mitochondria (1 mg protein/ml) in KCl buffer was incubated at 37° C. with 5 μM MitoSNO. 1 μM additions of MitoSNO were made sequentially before addition of 10 mM succinate. 200 nM FCCP was then added to uncouple the mitochondria. The concentrations of O2 and MitoSNO in solution were measured simultaneously using a Clark-type O2 electrode in combination with an ion-selective electrode for triphenylphosphonium cation (TPP^+). […] This can be seen in FIG. 3.\nWhen succinate was added, the mitochondria started respiring and set up a Δψ, which caused a decrease in the MitoSNO concentration, as detected by the ion-selective electrode (FIG. 3). When the mitochondria were uncoupled by FCCP, a concomitant increase in the concentration of MitoSNO, or its derivatives, in the medium was detected by the ion-selective electrode. The amount of MitoSNO taken up into the mitochondria from the trace in FIG. 3 corresponds to ˜2.5 μM of the initial external concentration of 5 μM. Therefore 7.5 nmol MitoSNO have been taken up into 3 mg protein, and as the mitochondrial volume is ˜0.5 μl/mg protein (Brown, G. C. and Brand, M. D. Biochem J., 1985, 225, 399-405), the concentration of MitoSNO within mitochondria is ˜5 mM. This represents a 2000 fold concentration relative to the 2.5 μM present in the external medium, and is consistent with a Nernstian uptake of MitoSNO."}, "liver mitochondria": {"system": "liver mitochondria", "test": "Metabolism of MitoSNAP by mitochondria (RP-HPLC of supernatant)", "format": "in vitro ADME, rat", "protocol": "FIG. 9 is a series of traces and graphs showing membrane potential-dependent MitoSNAP mitochondrial uptake and NO^• generation. (a-d) Liver mitochondria were incubated in KCl medium supplemented with rotenone in a stirred 3 ml chamber and electrodes were used to measure the concentrations of O2 and NO^• simultaneously. Where indicated succinate (10 mM), OxyHb (5 μM) or FCCP (500 nM) were added. For (a) and (b) 2 mg mitochondrial protein/ml and 20 μM MitoSNAP (a) or SNAP (b) were used. For (c) and (d) 0.5 mg mitochondrial protein/ml and 5 μM MitoSNAP were used. There was no effect of 5 μM MitoNAP on respiration or NO^• production. All traces are from typical experiments repeated at least twice. […] Mitochondria were then pelleted by centrifugation (10,000×g) then aliquots of the supernatant (700 μl) were mixed with 700 μl 0.1% TFA and analyzed by RP-HPLC. The amount of MitoSNAP and MitoNAP were calculated as the percentage of their peak areas relative to the sum of both peak areas.\nMitoSNAP, MitoNAP and their derivatives were separated by reverse phase HPLC (RP-HPLC) on a C18 column (Jupiter 300 Å, Phenomenex) with a Widepore C18 guard column (Phenomenex), using a Gilson 321 pump. […] Peaks were detected at 220 nm using a Gilson UV/VIS 151 spectrophotometer. […]"}}}
{"smiles": "CC(=O)NC(C(=O)NCCCCC[P+](c1ccccc1)(c1ccccc1)c1ccccc1)C(C)(C)SN=O.CS(=O)(=O)[O-]", "note": "(stereo not drawn) [MitoSNAP, [5-(2-acetylamino-3-methyl-3-nitrosothio-butyrylamino)-penty1]-triphenylphosphonium methanesulfonate]", "values": [{"measurement": "uptake by isolated mitochondria", "setting": "rat liver mitochondria", "result": "significant Δψ-dependent uptake"}, {"measurement": "conversion of MitoSNAP to MitoNAP", "setting": "liver mitochondria; energized mitochondria", "result": "rapidly consumed"}, {"measurement": "conversion of MitoSNAP to MitoNAP", "setting": "liver mitochondria; unenergized mitochondria (FCCP), compared with energized", "result": "slower"}]}
